Measured values: PubChem BioAssay (NCI)
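Tested at 5 concentrations; 48 h exposure; 96-well plates; endpoints linearly interpolated, else capped at highest concentration. TGI: total growth inhibition.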

These compounds were tested on NCI-H522 lung (assay: growth of human tumour cells (NCI), 48 h).
`CC(=O)OCCOCn1cnc2c(Cl)nc(Cl)nc21` gave a TGI of 4.07 µM.
With `COc1ccc(N2C(=O)c3cc(C)cnc3S2(=O)=O)cc1` the TGI was > 100 µM.
With `Cn1c(=O)c2[nH]c(CCCCC(=O)O)nc2n(C)c1=O` the TGI was > 100 µM.
For `Cc1cc(C)n(C2OC(CO)C(O)C(O)C2O)c(=S)c1C#N` (configuration not stated), the TGI was > 100 µM.
With `Cc1ccc(-c2c3nc(c(-c4ccc(C)cc4)c4ccc([nH]4)c(-c4ccc(OCC5COC(C)(C)O5)cc4)c4nc(c(-c5ccc(C)cc5)c5ccc2[nH]5)C=C4)C=C3)cc1` (configuration not stated) the TGI was > 31.6 µM.
With `Cc1ccccc1N=Nc1ccc(N/N=C2/CCCNC2=O)c(C)c1` the TGI was > 100 µM.
For `CCn1c2ccccc2n2c(=O)c3c(c(C#N)c12)CCCC3`, the TGI was > 100 µM.
With `CN(/N=C/c1ccc(OCc2cccc(COc3ccc(C=O)cc3)n2)cc1)c1cnn(-c2ccc(Cl)cc2Cl)c(=O)c1Cl` the TGI was > 100 µM.
For `CC12CCC([C@H](C(O)C3CCCCC3)C1=O)C2(C)C` (some centres not stated), the TGI was > 100 µM.
For `C=C1CC[C@H](O)C(C)(C)[C@@H]1CC/C(C)=C/CC/C=C(\C)CC/C=C(\C)CCC=C(C)C`, the TGI was > 100 µM.
`c1ccc(CSP234N5CCN2CCN3CCN4CC5)c(CSP234N5CCN2CCN3CCN4CC5)c1` was tested, and the TGI was > 100 µM.
For `COc1ccc(N2C(=O)C3ON(C(C(N)=O)c4ccccc4)C(c4cc5ccccc5c5ccccc45)C3C2=O)cc1` (configuration not stated), the TGI was > 50 µM.
For `O=c1[nH]c(Nc2nc3ccccc3[nH]2)nc2c1CCC2`, the TGI was > 100 µM.
For `O=C1N[C@@H](c2c[nH]c3cc(Br)ccc23)C(=O)N[C@H]1c1c[nH]c2cc(Br)ccc12`, the TGI was > 100 µM.
In the case of `COc1ccccc1N1CCN(CCCN2/C(=C(\O)c3ccccc3)C(=O)c3c(C)cc(C)nc3S2(=O)=O)CC1`, the TGI is reported as > 100 µM.
In the case of `Cc1ccc(C)c(COCCOCn2ccc(N)nc2=O)c1`, the TGI is reported as > 100 µM.
In the case of `CCOP(=O)(O)C1C(CO)OC(n2ccc(=O)[nH]c2=O)C1O` (configuration not stated), the TGI is reported as > 100 µM.
With `O=C1NCCCNCCCNCCCNC(=O)c2cccc1n2` the TGI was > 100 µM.
With `CSC1=N/C(=C\c2ccccc2)C(=O)N1CN1CCCCC1` the TGI was > 100 µM.

What follows are compounds tested on OVCAR-5 ovarian (assay: growth of human tumour cells (NCI), 48 h).
`Cc1ccc(N=Nc2c(C)c(C#N)c(=S)n(C3OC(CO)C(O)C(O)C3O)c2C)cc1` (configuration not stated) was tested, and the TGI was > 100 µM.
Compound `C=C(CC[C@@H](C)[C@H]1CC[C@@]2(C)C3=C(CC[C@]12C)[C@@]1(C)CC[C@H](O)[C@@H](C)C1CC3)C(C)C` (some centres not stated) has a TGI of 2.67 µM.
In the case of `CC(=O)OCCOCn1cnc2c(Cl)nc(Cl)nc21`, the TGI is reported as 36.9 µM.
For `COc1ccc(N2C(=O)c3cc(C)cnc3S2(=O)=O)cc1`, the TGI was > 100 µM.
For `Cn1c(=O)c2[nH]c(CCCCC(=O)O)nc2n(C)c1=O`, the TGI was > 100 µM.
In the case of `Cc1cc(C)n(C2OC(CO)C(O)C(O)C2O)c(=S)c1C#N` (configuration not stated), the TGI is reported as > 100 µM.
`Cc1ccc(-c2c3nc(c(-c4ccc(C)cc4)c4ccc([nH]4)c(-c4ccc(OCC5COC(C)(C)O5)cc4)c4nc(c(-c5ccc(C)cc5)c5ccc2[nH]5)C=C4)C=C3)cc1` (configuration not stated) was tested, and the TGI was > 31.6 µM.
With `Cc1ccccc1N=Nc1ccc(N/N=C2/CCCNC2=O)c(C)c1` the TGI was > 100 µM.
`CCn1c2ccccc2n2c(=O)c3c(c(C#N)c12)CCCC3` was tested, and the TGI was > 100 µM.
For `CN(/N=C/c1ccc(OCc2cccc(COc3ccc(C=O)cc3)n2)cc1)c1cnn(-c2ccc(Cl)cc2Cl)c(=O)c1Cl`, the TGI was > 100 µM.
In the case of `CC12CCC([C@H](C(O)C3CCCCC3)C1=O)C2(C)C` (some centres not stated), the TGI is reported as > 100 µM.
With `C=C1CC[C@H](O)C(C)(C)[C@@H]1CC/C(C)=C/CC/C=C(\C)CC/C=C(\C)CCC=C(C)C` the TGI was > 100 µM.
With `c1ccc(CSP234N5CCN2CCN3CCN4CC5)c(CSP234N5CCN2CCN3CCN4CC5)c1` the TGI was > 100 µM.
For `COc1cc2c(cc1OC)CCc1cc(OC)c(OC)cc1CC2`, the TGI was > 100 µM.
In the case of `COc1ccc(N2C(=O)C3ON(C(C(N)=O)c4ccccc4)C(c4cc5ccccc5c5ccccc45)C3C2=O)cc1` (configuration not stated), the TGI is reported as > 50 µM.
With `O=c1[nH]c(Nc2nc3ccccc3[nH]2)nc2c1CCC2` the TGI was > 100 µM.
`O=C1N[C@@H](c2c[nH]c3cc(Br)ccc23)C(=O)N[C@H]1c1c[nH]c2cc(Br)ccc12` was tested, and the TGI was > 100 µM.
With `COc1ccccc1N1CCN(CCCN2/C(=C(\O)c3ccccc3)C(=O)c3c(C)cc(C)nc3S2(=O)=O)CC1` the TGI was > 100 µM.
With `c1ccc2c(c1)nc1n2CNC1` the TGI was > 100 µM.
In the case of `Cc1ccc(C)c(COCCOCn2ccc(N)nc2=O)c1`, the TGI is reported as > 100 µM.
With `O=C1NCCCNCCCNCCCNC(=O)c2cccc1n2` the TGI was > 100 µM.
`CSC1=N/C(=C\c2ccccc2)C(=O)N1CN1CCCCC1` was tested, and the TGI was > 100 µM.
`COC(=O)C1=C(C(=O)OC)c2cc(OC)ccc2C(C(=S)N(C)C)S1` (configuration not stated) was tested, and the TGI was > 100 µM.

The compounds below were run on RPMI-8226 leukemia (assay: growth of human tumour cells (NCI), 48 h).
`Cc1ccc(N=Nc2c(C)c(C#N)c(=S)n(C3OC(CO)C(O)C(O)C3O)c2C)cc1` (configuration not stated) was tested, and the TGI was > 100 µM.
`CC(=O)OCCOCn1cnc2c(Cl)nc(Cl)nc21` was tested, and the TGI was 33.5 µM.
`COc1ccc(N2C(=O)c3cc(C)cnc3S2(=O)=O)cc1` was tested, and the TGI was > 100 µM.
In the case of `CC(C)=CC(=O)C[C@H]1C(=O)O[C@@H]2C[C@H]3C(C)=CC(=O)[C@@H](O)[C@]3(C)[C@H]3[C@@]4(O)OC[C@]32[C@@H]1[C@@H](C)[C@H]4O`, the TGI is reported as 0.0447 µM.
For `Cc1cc(C)n(C2OC(CO)C(O)C(O)C2O)c(=S)c1C#N` (configuration not stated), the TGI was > 100 µM.
For `Cc1ccc(-c2c3nc(c(-c4ccc(C)cc4)c4ccc([nH]4)c(-c4ccc(OCC5COC(C)(C)O5)cc4)c4nc(c(-c5ccc(C)cc5)c5ccc2[nH]5)C=C4)C=C3)cc1` (configuration not stated), the TGI was > 100 µM.
In the case of `Cc1ccccc1N=Nc1ccc(N/N=C2/CCCNC2=O)c(C)c1`, the TGI is reported as > 100 µM.
With `CN(/N=C/c1ccc(OCc2cccc(COc3ccc(C=O)cc3)n2)cc1)c1cnn(-c2ccc(Cl)cc2Cl)c(=O)c1Cl` the TGI was > 100 µM.
In the case of `CC12CCC([C@H](C(O)C3CCCCC3)C1=O)C2(C)C` (some centres not stated), the TGI is reported as > 100 µM.
For `c1ccc(CSP234N5CCN2CCN3CCN4CC5)c(CSP234N5CCN2CCN3CCN4CC5)c1`, the TGI was > 100 µM.
In the case of `O=C1N[C@@H](c2c[nH]c3cc(Br)ccc23)C(=O)N[C@H]1c1c[nH]c2cc(Br)ccc12`, the TGI is reported as > 100 µM.
For `c1ccc2c(c1)nc1n2CNC1`, the TGI was > 100 µM.
With `CCOP(=O)(O)C1C(CO)OC(n2ccc(=O)[nH]c2=O)C1O` (configuration not stated) the TGI was > 100 µM.
For `O=C1NCCCNCCCNCCCNC(=O)c2cccc1n2`, the TGI was > 100 µM.
In the case of `CSC1=N/C(=C\c2ccccc2)C(=O)N1CN1CCCCC1`, the TGI is reported as > 100 µM.
